# Measured values reported in ChEMBL document CHEMBL3600360, “Fluorescent photoaffinity probes for mitotic protein kinase Aurora A” (Bioorg Med Chem Lett, 2015).
# The source made the active and inactive calls. The calls are words filed in the database; no cut-off is given here.
# Legend:
# [1] = target: T1, Aurora kinase A (Homo sapiens) (UniProt O14965); experiment: Binding affinity to purified recombinant full-length Aurora A (unknown origin) assessed as covalent irreversible complex formation at 2.4 uM irradiated for 15 mins with near-UV light by SDS-PAGE and Western blot method
# T1 sequence (whole entry): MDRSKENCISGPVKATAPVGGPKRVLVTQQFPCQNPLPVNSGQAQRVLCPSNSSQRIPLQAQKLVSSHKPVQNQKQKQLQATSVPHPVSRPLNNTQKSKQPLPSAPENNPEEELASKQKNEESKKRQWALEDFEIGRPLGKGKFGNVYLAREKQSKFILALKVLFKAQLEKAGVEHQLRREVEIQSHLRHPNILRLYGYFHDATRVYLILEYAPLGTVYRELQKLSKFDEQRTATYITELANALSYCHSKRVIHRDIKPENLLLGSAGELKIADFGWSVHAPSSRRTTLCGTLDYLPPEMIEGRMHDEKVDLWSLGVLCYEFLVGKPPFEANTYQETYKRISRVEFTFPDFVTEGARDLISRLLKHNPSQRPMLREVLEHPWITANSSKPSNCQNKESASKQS
# Aurora kinase A = target: T2, Aurora kinase A (Homo sapiens, UniProt O14965); experiment: Binding affinity to purified recombinant full-length Aurora A (unknown origin) by fluorescence polarisation/anisotropy based equilibrium binding assay
# T2 sequence (O14965 whole entry): T1 sequence (whole entry)
# [2] = target: T1, Aurora kinase A (Homo sapiens); experiment: Inhibition of purified recombinant full-length Aurora A (unknown origin) assessed as residual enzyme activity at 2 mM using kemptide analogue substrate and 5 mM ATP in presence of TPX2 (1 to 43 residues)
# [3] = target: T1, Aurora kinase A (Homo sapiens); experiment: Binding affinity to 1 uM and >100 uM VX689-prre-treated purified recombinant full-length Aurora A (unknown origin) assessed as covalent irreversible complex formation at 1 uM irradiated for 15 mins with near-UV light by SDS-PAGE and Western blot method
# [4] = target: T1, Aurora kinase A (Homo sapiens); experiment: Binding affinity to Aurora A in human HeLa cells assessed as covalent irreversible complex formation at 1 uM irradiated for 15 mins with near-UV light by SDS-PAGE and Western blot method; assay type: cell-based
# [5] = target: T1, Aurora kinase A (Homo sapiens); experiment: Binding affinity to Aurora A in human HeLa cells assessed as covalent irreversible complex formation at 1 uM irradiated for 15 mins with near-UV light in presence of Aurora A inhibitor MLN8237 by SDS-PAGE and Western blot method; assay type: cell-based
# [6] = target: T1, Aurora kinase A (Homo sapiens); experiment: Binding affinity to purified recombinant full-length Aurora A (unknown origin) assessed as covalent irreversible complex formation at 2.4 uM irradiated for 15 mins with near-UV light in presence of TPX2 by SDS-PAGE and Western blot method
# [7] = target: T1, Aurora kinase A (Homo sapiens); experiment: Binding affinity to purified recombinant full-length Aurora A (unknown origin) assessed as covalent irreversible complex formation at 4.8 uM irradiated for 15 mins with near-UV light using 200 nM Aurora A by SDS-PAGE and Western blot method
# [8] = target: T1, Aurora kinase A (Homo sapiens); experiment: Binding affinity to purified recombinant full-length Aurora A (unknown origin) assessed as covalent irreversible complex formation at 1.2 uM irradiated for 30 mins with near-UV light by SDS-PAGE and Western blot method
# [9] = target: T1, Aurora kinase A (Homo sapiens); experiment: Binding affinity to purified recombinant full-length Aurora A (unknown origin) assessed as covalent irreversible complex formation at 1.2 uM irradiated for 15 mins with near-UV light in presence of TPX2 by SDS-PAGE and Western blot method
Activity [1],Kd (Aurora kinase A),Activity [2],Activity [3],Activity [4],Activity [5],Activity [6],Activity [7],Activity [8],Activity [9],Compound
11%,2.5 nM,96%,inactive,,,,,,,CCN1/C(=C/C=C/C2=[N+](CC)c3ccc(S(=O)(=O)O)cc3C2(C)C)C(C)(CCCC(=O)NCCCC[C@@H](NC(=O)[C@@H](CCCNC(=N)N)NC(=O)[C@@H](CCCNC(=N)N)NC(=O)[C@@H](CCCNC(=N)N)NC(=O)[C@@H](CCCNC(=N)N)NC(=O)[C@@H](CCCNC(=N)N)NC(=O)[C@@H](CCCNC(=N)N)NC(=O)[C@@H](Cc2ccc(N=[N+]=[N-])cc2)NC(=O)[C@@H](Cc2ccc(N=[N+]=[N-])cc2)NC(=O)CCNC(=O)[C@]2(Cc3cccc(Nc4nccs4)n3)CC[C@@H](Oc3cccc(Cl)c3F)CC2)C(N)=O)c2cc(S(=O)(=O)O)ccc21 (stereo in doubt)
15%,6.1 nM,74%,inactive,Active,inactive,,,,,CCN1/C(=C/C=C/C2=[N+](CC)c3ccc(S(=O)(=O)O)cc3C2(C)C)C(C)(CCCC(=O)NCCCC[C@@H](NC(=O)[C@H](CCCNC(=N)N)NC(=O)[C@H](CCCNC(=N)N)NC(=O)[C@H](CCCNC(=N)N)NC(=O)[C@H](CCCNC(=N)N)NC(=O)[C@H](CCCNC(=N)N)NC(=O)[C@H](CCCNC(=N)N)NC(=O)[C@@H](Cc2ccc(N=[N+]=[N-])cc2)NC(=O)[C@@H](Cc2ccc(N=[N+]=[N-])cc2)NC(=O)CCNC(=O)[C@]2(Cc3cccc(Nc4nccs4)n3)CC[C@@H](Oc3cccc(Cl)c3F)CC2)C(N)=O)c2cc(S(=O)(=O)O)ccc21 (some centres not stated)
8.1%,9.1 nM,100%,,,,,,,,CCN1/C(=C/C=C/C2=[N+](CC)c3ccc(S(=O)(=O)O)cc3C2(C)C)C(C)(CCCC(=O)NCCCC[C@@H](NC(=O)[C@@H](CCCNC(=N)N)NC(=O)[C@@H](CCCNC(=N)N)NC(=O)[C@@H](CCCNC(=N)N)NC(=O)[C@@H](CCCNC(=N)N)NC(=O)[C@@H](CCCNC(=N)N)NC(=O)[C@@H](CCCNC(=N)N)NC(=O)[C@H](Cc2ccc(C(=O)c3ccccc3)cc2)NC(=O)[C@H](Cc2ccc(C(=O)c3ccccc3)cc2)NC(=O)CCCNC(=O)[C@]2(Cc3cccc(Nc4nccs4)n3)CC[C@@H](Oc3cccc(Cl)c3F)CC2)C(N)=O)c2cc(S(=O)(=O)O)ccc21 (some centres not stated)
40%,1.9 nM,100%,inactive,Active,Active,Active,inactive,,,CN(C)c1ccc2c(-c3ccc(C(=O)NCCCC[C@H](NC(=O)[C@H](Cc4ccc(N=[N+]=[N-])cc4)NC(=O)[C@H](Cc4ccc(N=[N+]=[N-])cc4)NC(=O)CCCNC(=O)[C@]4(Cc5cccc(Nc6nccs6)n5)CC[C@@H](Oc5cccc(Cl)c5F)CC4)C(N)=O)cc3C(=O)O)c3ccc(=[N+](C)C)cc-3oc2c1
,0.44 nM,110%,,,,,,1.5%,Active,CN(C)c1ccc2c(-c3ccc(C(=O)NCCCC[C@H](NC(=O)[C@H](Cc4ccccc4)NC(=O)[C@H](Cc4ccccc4)NC(=O)CCCNC(=O)[C@]4(Cc5cccc(Nc6nccs6)n5)CC[C@@H](Oc5cccc(Cl)c5F)CC4)C(N)=O)cc3C(=O)O)c3ccc(=[N+](C)C)cc-3oc2c1
,,67%,,,,,,,,O=C(O)[C@]1(Cc2cccc(Nc3nccs3)n2)CC[C@@H](Oc2cccc(Cl)c2F)CC1
,,10%,,,,,,,,N=C(N)NCCC[C@@H](NC(=O)[C@@H](CCCNC(=N)N)NC(=O)[C@@H](CCCNC(=N)N)NC(=O)[C@@H](CCCNC(=N)N)NC(=O)[C@@H](CCCNC(=N)N)NC(=O)[C@@H](CCCNC(=N)N)NC(=O)CCCCCNC(=O)[C@]1(Cc2cccc(Nc3nccs3)n2)CC[C@@H](Oc2cccc(Cl)c2F)CC1)C(N)=O
18%,5.7 nM,71%,inactive,Active,inactive,,,,,CCN1/C(=C/C=C/C2=[N+](CC)c3ccc(S(=O)(=O)O)cc3C2(C)C)C(C)(CCCC(=O)NCCCC[C@@H](NC(=O)[C@@H](CCCNC(=N)N)NC(=O)[C@@H](CCCNC(=N)N)NC(=O)[C@@H](CCCNC(=N)N)NC(=O)[C@@H](CCCNC(=N)N)NC(=O)[C@@H](CCCNC(=N)N)NC(=O)[C@@H](CCCNC(=N)N)NC(=O)[C@H](Cc2ccc(N=[N+]=[N-])cc2)NC(=O)[C@H](Cc2ccc(N=[N+]=[N-])cc2)NC(=O)CCNC(=O)[C@]2(Cc3cccc(Nc4nccs4)n3)CC[C@@H](Oc3cccc(Cl)c3F)CC2)C(N)=O)c2cc(S(=O)(=O)O)ccc21 (some centres not stated)
,,100%,,Active,Active,,,9%,Active,CN(C)c1ccc2c(-c3ccc(C(=O)NCCCC[C@H](NC(=O)[C@H](Cc4ccc(C(=O)c5ccccc5)cc4)NC(=O)[C@H](Cc4ccc(C(=O)c5ccccc5)cc4)NC(=O)CCCNC(=O)[C@]4(Cc5cccc(Nc6nccs6)n5)CC[C@@H](Oc5cccc(Cl)c5F)CC4)C(N)=O)cc3C(=O)O)c3ccc(=[N+](C)C)cc-3oc2c1
,2.2 nM,73%,inactive,,,,,20%,,CN(C)c1ccc2c(-c3ccc(C(=O)NCCCOCCOCCOCCCNC(=O)[C@@H](Cc4ccc(N=[N+]=[N-])cc4)NC(=O)CCNC(=O)[C@]4(Cc5cccc(Nc6nccs6)n5)CC[C@@H](Oc5cccc(Cl)c5F)CC4)cc3C(=O)O)c3ccc(=[N+](C)C)cc-3oc2c1
6.9%,6.5 nM,110%,,,,,,,,CCN1/C(=C/C=C/C2=[N+](CC)c3ccc(S(=O)(=O)O)cc3C2(C)C)C(C)(CCCC(=O)NCCCC[C@@H](NC(=O)[C@@H](CCCNC(=N)N)NC(=O)[C@@H](CCCNC(=N)N)NC(=O)[C@@H](CCCNC(=N)N)NC(=O)[C@@H](CCCNC(=N)N)NC(=O)[C@@H](CCCNC(=N)N)NC(=O)[C@@H](CCCNC(=N)N)NC(=O)[C@@H](Cc2ccc(C(=O)c3ccccc3)cc2)NC(=O)[C@@H](Cc2ccc(C(=O)c3ccccc3)cc2)NC(=O)CCCNC(=O)[C@]2(Cc3cccc(Nc4nccs4)n3)CC[C@@H](Oc3cccc(Cl)c3F)CC2)C(N)=O)c2cc(S(=O)(=O)O)ccc21 (some centres not stated)
8.5%,,100%,,,,,,,,CCN1/C(=C/C=C/C2=[N+](CC)c3ccc(S(=O)(=O)O)cc3C2(C)C)C(C)(CCCC(=O)NCCCC[C@@H](NC(=O)[C@H](CCCNC(=N)N)NC(=O)[C@H](CCCNC(=N)N)NC(=O)[C@H](CCCNC(=N)N)NC(=O)[C@H](CCCNC(=N)N)NC(=O)[C@H](CCCNC(=N)N)NC(=O)[C@H](CCCNC(=N)N)NC(=O)[C@H](Cc2ccc(C(=O)c3ccccc3)cc2)NC(=O)[C@H](Cc2ccc(C(=O)c3ccccc3)cc2)NC(=O)CCCNC(=O)[C@]2(Cc3cccc(Nc4nccs4)n3)CC[C@@H](Oc3cccc(Cl)c3F)CC2)C(N)=O)c2cc(S(=O)(=O)O)ccc21 (some centres not stated)
